From patent US8329904B2, “Azacyclic derivatives” (Hoffmann-La Roche Inc., priority 2009, dated 2012)

The molecules below were run against T1, human HSL (Homo sapiens, UniProt Q05469) (assay: Human Hormone-Sensitive Lipase (HSL) Enzyme Inhibition Assay). Details: colorimetric assay, 2,3-dimercapto-1-propanol tributyrate (DMPT) substrate, 37° C. for 20 minutes, absorbance at 405 nm; read-out: HSL hum IC50.
T1 construct: overlapping PCR to generate a full length human HSL ORF with a 3′-His6 tag; His6 (C); made in house; host or cells: High 5 insect cells (baculovirus, pFast-BAC)
T1 sequence (Q05469 1-1076): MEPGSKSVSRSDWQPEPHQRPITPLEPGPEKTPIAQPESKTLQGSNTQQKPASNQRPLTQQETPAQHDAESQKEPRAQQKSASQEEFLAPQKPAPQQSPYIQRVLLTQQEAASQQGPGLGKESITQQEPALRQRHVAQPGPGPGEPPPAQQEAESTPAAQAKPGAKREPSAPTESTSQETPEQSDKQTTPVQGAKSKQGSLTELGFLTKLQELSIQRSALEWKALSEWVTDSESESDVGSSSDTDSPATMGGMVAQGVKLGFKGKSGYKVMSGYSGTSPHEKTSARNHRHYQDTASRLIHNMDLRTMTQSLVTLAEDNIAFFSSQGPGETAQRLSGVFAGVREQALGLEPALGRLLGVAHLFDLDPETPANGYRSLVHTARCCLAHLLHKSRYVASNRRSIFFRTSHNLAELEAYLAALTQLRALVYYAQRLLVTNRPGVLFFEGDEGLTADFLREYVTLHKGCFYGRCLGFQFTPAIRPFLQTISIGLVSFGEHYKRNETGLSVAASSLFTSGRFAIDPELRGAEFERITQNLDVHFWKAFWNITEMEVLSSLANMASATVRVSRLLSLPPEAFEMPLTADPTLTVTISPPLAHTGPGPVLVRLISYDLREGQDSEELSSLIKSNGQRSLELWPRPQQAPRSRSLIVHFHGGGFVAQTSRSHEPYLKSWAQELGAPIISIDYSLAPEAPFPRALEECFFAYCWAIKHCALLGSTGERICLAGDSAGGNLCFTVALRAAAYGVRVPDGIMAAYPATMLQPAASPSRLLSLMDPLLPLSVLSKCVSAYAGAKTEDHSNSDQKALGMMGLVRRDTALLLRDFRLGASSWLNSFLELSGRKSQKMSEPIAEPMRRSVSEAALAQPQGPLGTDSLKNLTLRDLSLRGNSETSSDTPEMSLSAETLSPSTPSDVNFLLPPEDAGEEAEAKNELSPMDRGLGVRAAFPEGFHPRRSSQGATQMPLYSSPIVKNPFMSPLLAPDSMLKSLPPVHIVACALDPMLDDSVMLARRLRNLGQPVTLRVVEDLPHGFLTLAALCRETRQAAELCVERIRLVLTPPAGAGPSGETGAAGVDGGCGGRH
Type: biochemical
Procedure: Production of Human Full Length Hormone Sensitive Lipase-His^6
1) Cloning: cDNA was prepared from commercial human brain polyA-+ RNA and used as a template in overlapping PCR to generate a full length human HSL ORF with a 3′-His6 tag. This full length insert was cloned into the pFast-BAC vector and the DNA-sequence of several single clones was verified. DNA from a correct full length clone with the 3′His6 tag was used to transform the E. coli strain DH10BAC. Resulting bacmid DNA was used to generate a titered baculovirus stock for protein generation.
Cells were thawed. […] was done at 3×30 sec., Lubrol PX was added to 0.2% final concentration followed by stirring for 15 min. at 4° C. and centrifugation at 25 k×g, 60 min., 4° C. […] Supernatant was removed, the resin washed in the centrifuge vessel using 5 volumes of Base Buffer containing 0.2% Lubrol PX. Centrifugation was done again, then the supernatant discarded. The resin wass poured onto a 0.8 μm membrane in a disposable filter unit (Nalge 450-0080), and washed with 5 volumes of Base Buffer containing 0.2% Lubrol PX. It was then washed with 30 volumes of Base Buffer containing 60 mM imidazole pH 7.5 at 4° C. The protein was eluated with 5 volumes of 25 mM Tris-Cl, 300 mM NaCl, 200 mM imidazole, 10 mM 2-mercaptoethanol, pH 7.5 at 4° C. by tumbling resin with buffer end-over-end, 30 min., 4° C. The resin was captured on a 0.2 μm membrane disposable filter unit (Millipore SCGP U02 RE) and the eluate collected in the reservoir. The eluate was concentrated using a 30 k MWCO centrifugal filter device (Sartorius Vivascience Vivacell 100, VC1022), to 20 ml. It was then dialyzed overnight at 4° C., two times against 2 L of 10% glycerol, 25 mM Tris-Cl, 300 mM NaCl, 0.2 mM EDTA, 0.2 mM DTT, pH 7.5 at 4° C. The protein was filtered using a 0.22 μm disposable filter unit (Millipore SCGP00525). The protein concentration was calculated from absorbance at 280 nm, using 280=0.67 cm-1 mg-1. […] The protein was stored at −80° C.
Human Hormone-Sensitive Lipase (HSL) Enzyme Inhibition Assay:
HSL enzyme activity was measured by a colorimetric assay using 2,3-dimercapto-1-propanol tributyrate (Aldrich, St. Louis, Mo.) as a substrate. Typically, 1.5 mM 2,3-dimercapto-1-propanol tributyrate (DMPT) in 100 mM MOPS, pH 7.2, 0.2 mg/ml fatty acid-free BSA was prepared by sonication at 4° C. to homogenous suspension. Test compounds (2 mM stock in DMSO) were diluted 3 fold in series in DMSO. Compound solutions were diluted 24 fold in 1.5 mM DMPT containing solution and 18 ul per well was added to 384-well microplates (Corning Costar). Twelve microliters per well of human HSL (15 ug/ml) was added and the reaction mixture was incubated at 37° C. for 20 minutes. Six microliters of 12 mM dithio-bis-(2-nitrobenzoic acid) (DTNB) in DMSO plus 1.2% SDS and 0.6% Triton X-100 were added and the mixture was incubated at room temperature for 15 minutes. Product production was monitored by reading absorbance at 405 nm on an Envision Reader (PerkinElmer Life and Analytical Sciences, Shelton, Conn.).

Row | SMILES | IC50 [µM]
1 | CC(Oc1ccc(N2CCC3(CCN(S(=O)(=O)c4ccccc4)CC3)C2=O)cc1)C(F)(F)F (racemic) [Example 4, (rac)-8-Benzenesulfonyl-2-[4-(2,2,2-trifluoro-1-methyl-ethoxy)-phenyl]-2,8-diaza-piro[4.5]decan-1-one] | 0.02
2 | O=C1N(c2ccc(OC(F)(F)F)cc2)CCC12CCN(S(=O)(=O)c1ccccc1Cl)CC2 [Example 1, 8-(2-Chloro-benzenesulfonyl)-2-(4-trifluoromethoxy-phenyl)-2,8-diaza-spiro[4.5]decan-1-one] | 0.03
3 | O=C1N(c2ccc(OC(F)(F)F)cc2)CCC12CCN(S(=O)(=O)c1ccccc1)CC2 [Example 2, 8-Benzenesulfonyl-2-(4-trifluoromethoxy-phenyl)-2,8-diaza-spiro[4.5]decan-1-one] | 0.04
4 | CC(C)(C)c1ccc(N2CCC3(CCN(S(=O)(=O)c4ccccc4)CC3)C2=O)cc1 [Example 3, 8-Benzenesulfonyl-2-(4-tert-butyl-phenyl)-2,8-diaza-spiro[4.5]decan-1-one] | 0.03
5 | CC(C)(Oc1ccc(N2CCC3(CCN(S(=O)(=O)c4ccccc4)CC3)C2=O)cc1)C(F)(F)F [Example 5, 8-Benzenesulfonyl-2-[4-(2,2,2-trifluoro-1,1-dimethyl-ethoxy)-phenyl]-2,8-diaza-spiro[4.5]decan-1-one] | 0.04
6 | CC(C)Oc1ccc(N2CCC3(CCN(S(=O)(=O)c4ccccc4)CC3)C2=O)cc1 [Example 6, 8-Benzenesulfonyl-2-(4-isopropoxy-phenyl)-2,8-diaza-spiro[4.5]decan-1-one] | 0.04
7 | CC(C)(C)CC(=O)N1CCC2(CC1)CCN(c1ccc(OC(F)(F)F)cc1)C2=O [Example 7, 8-(3,3-Dimethyl-butyryl)-2-(4-trifluoromethoxy-phenyl)-2,8-diaza-spiro[4.5]decan-1-one] | 0.06
8 | O=C1N(c2ccc(OC(F)(F)F)cc2)CCC12CCN(S(=O)(=O)N1CCOCC1)CC2 [Example 8, 8-(Morpholine-4-sulfonyl)-2-(4-trifluoromethoxy-phenyl)-2,8-diaza-spiro[4.5]decan-1-one] | 0.09
9 | O=C1N(c2ccc(OC(F)(F)F)cc2)CCCC12CCN(S(=O)(=O)c1ccccc1)CC2 [Example 9, 9-Benzenesulfonyl-2-(4-trifluoromethoxy-phenyl)-2,9-diaza-spiro[5.5]undecan-1-one] | 0.05
10 | CC(C)c1ccc(N2CCC3(CCN(S(=O)(=O)c4ccccc4)CC3)C2=O)cn1 [Example 10, 8-Benzenesulfonyl-2-(6-isopropyl-pyridin-3-yl)-2,8-diaza-spiro[4.5]decan-1-one] | 0.13
11 | O=C1N(c2ccc(Cl)nc2)CCC12CCN(S(=O)(=O)c1ccccc1)CC2 [Example 11, 8-Benzenesulfonyl-2-(6-chloro-pyridin-3-yl)-2,8-diaza-spiro[4.5]decan-1-one] | 1.7
12 | O=C1N(c2cccnc2)CCC12CCN(S(=O)(=O)c1ccccc1)CC2 [Example 12, 8-Benzenesulfonyl-2-pyridin-3-yl-2,8-diaza-spiro[4.5]decan-1-one] | 26
13 | O=C(CCC1CC1)N1CCC2(CC1)CCN(c1ccc(OC(F)(F)F)cc1)C2=O [Example 13, 8-(3-Cyclopropyl-propionyl)-2-(4-trifluoromethoxy-phenyl)-2,8-diaza-spiro[4.5]decan-1-one] | 0.15
14 | CC(C)(C)CCC(=O)N1CCC2(CC1)CCN(c1ccc(OC(F)(F)F)cc1)C2=O [Example 14, 8-(4,4-Dimethyl-pentanoyl)-2-(4-trifluoromethoxy-phenyl)-2,8-diaza-spiro[4.5]decan-1-one] | 0.17
15 | CC(C)Oc1ccc(N2CCC3(CCN(S(=O)(=O)N4CCOCC4)CC3)C2=O)cc1 [Example 15, 2-(4-Isopropoxy-phenyl)-8-(morpholine-4-sulfonyl)-2,8-diaza-spiro[4.5]decan-1-one] | 0.36
16 | COc1ccc(N2CCC3(CCN(S(=O)(=O)c4ccccc4)CC3)C2=O)nn1 [Example 16, 8-Benzenesulfonyl-2-(6-methoxy-pyridazin-3-yl)-2,8-diaza-spiro[4.5]decan-1-one] | 15

Now from value to molecule:

Row | IC50 [µM] | SMILES
17 | 0.13 | CC(Oc1ccc(N2CCC3(CCN(S(=O)(=O)CC(C)(C)C)CC3)C2=O)cc1)C(F)(F)F (racemic) [Example 22, (rac)-8-(2,2-Dimethyl-propane-1-sulfonyl)-2-[4-(2,2,2-trifluoro-1-methyl-ethoxy)-phenyl]-2,8-diaza-spiro[4.5]decan-1-one]
18 | 0.05 | CC(Oc1ccc(N2CCC3(CCN(S(=O)(=O)c4ccccc4)CC3)C2=O)cn1)C(F)(F)F (racemic) [Example 25, (rac)-8-Benzenesulfonyl-2-[6-(2,2,2-trifluoro-1-methyl-ethoxy)-pyridin-3-yl]-2,8-diaza-spiro[4.5]decan-1-one]
19 | 0.05 | CC(Oc1ccc(N2CCC3(CCN(S(=O)(=O)c4ccccc4Cl)CC3)C2=O)cn1)C(F)(F)F (racemic) [Example 114, 8-(2-Chloro-benzenesulfonyl)-2-[6-(2,2,2-trifluoro-1-methyl-ethoxy)-pyridin-3-yl]-2,8-diaza-spiro[4.5]decan-1-one (rac)]
20 | 0.12 | Cc1noc(C)c1S(=O)(=O)N1CCC2(CCN(c3ccc(C(O)C(F)(F)F)cc3)C2=O)CC1 (racemic) [Example 162, (rac)-8-(3,5-Dimethyl-isoxazole-4-sulfonyl)-2-[4-(2,2,2-trifluoro-1-hydroxy-ethyl)-phenyl]-2,8-diaza-spiro[4.5]decan-1-one]
21 | 0.04 | O=C1N(c2ccc(C(O)C(F)F)cc2)CCC12CCN(S(=O)(=O)c1ccccc1C(F)(F)F)CC2 (racemic) [Example 176, (rac)-2-(4-(2,2-difluoro-1-hydroxyethyl)phenyl)-8-(2-(trifluoromethyl)phenylsulfonyl)-2,8-diazaspiro[4.5]decan-1-one]
22 | 0.03 | CCc1ccc(N2CCC3(CCN(S(=O)(=O)c4ccccc4Cl)CC3)C2=O)cc1 [Example 17, 8-(2-Chloro-benzenesulfonyl)-2-(4-ethyl-phenyl)-2,8-diaza-spiro[4.5]decan-1-one]
23 | 0.08 | CC(C)CS(=O)(=O)N1CCC2(CCN(c3ccc(OC(F)(F)F)cc3)C2=O)CC1 [Example 18, 8-(2-Methyl-propane-1-sulfonyl)-2-(4-trifluoromethoxy-phenyl)-2,8-diaza-spiro[4.5]decan-1-one]
